IC50 and GI50 data for 27 molecules are collected here from US8846704B2, “Thiopyrimidine-based compounds and uses thereof” (YM Biosciences Austraila Pty Ltd, priority 2007, dated 2014).

Experiment [1] concerns the target T1, human JAK2 (Homo sapiens, UniProt O60674).
T1 construct: The kinase domain of human JAK2 was amplified; GST (N); made in house; host or cells: Sf9 insect cells (baculovirus)
The experiment can be described thus: Alphascreen tyrosine kinase enzyme assay, JAK2 kinase domain. In kind it is biochemical. Particulars: read-out: JAK2 IC50_nM. The gist of the method:
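JAK2 kinase domain expressed in baculovirus/Sf9 and glutathione-affinity purified. Compounds (final […]) pre-incubated 20 min with enzyme in 10 mM HEPES pH 7.5, MgCl2, NaCl, vanadate, 0.1% Tween 20.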
For orientation: Bead proximity is the source of the signal in Alpha formats.

The target of experiment [2] is T2, BaF3 TELJAK2 cells (BafT_J2) (Homo sapiens, UniProt O60674).
T2 construct: fused on or other part: TEL (ETV6) N-terminal part, coding nucleotides 1-487, serves as the oligomerising partner; It is fused through a Sal I site to the JAK2 kinase domain and expressed from pTRE2 in BaF3 cells bearing pTET-off; P41212 (Transcription factor ETV6)
The experiment can be described thus: Cellular screening, BaF3 TEL:JAK2 cells, Alamar Blue. The following applies: 40 hr, read-out: BafT_J2 IC50_nM. In kind it is cell-based. A digest of the protocol:
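Tet-off BaF3 cells carrying a TEL (nt 1-487)–JAK2 kinase-domain fusion, grown factor-independently in DMEM with 10% Tet-approved FBS without WEHI 3B medium. Compounds were diluted to 20 μM in screening plates, and cells (50,000–200,000 cell/mL at 1.1×) were incubated 40 hr at 37 °C, 5% CO2. Alamar Blue was then added for 4-6 hours; read at 544 nm.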

The subject of experiment [3] is CTLL2. Put plainly: Cellular screening, CTLL2 cells, Alamar Blue. In kind it is cell-based. The following applies: Mus musculus, CTLL-2, read-out: CTLL2 IC50_nM. The gist of the method: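 CTLL2 cells in late log phase incubated with compound for 40 hr at 37° C, 5% CO2. Viability then read at 544 nm after a further 4-6 hours with Alamar Blue.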
For orientation: The colour change of resazurin is a common sign of viable cells or microbes.

T1 sequence (O60674 849-1124 limits assumed): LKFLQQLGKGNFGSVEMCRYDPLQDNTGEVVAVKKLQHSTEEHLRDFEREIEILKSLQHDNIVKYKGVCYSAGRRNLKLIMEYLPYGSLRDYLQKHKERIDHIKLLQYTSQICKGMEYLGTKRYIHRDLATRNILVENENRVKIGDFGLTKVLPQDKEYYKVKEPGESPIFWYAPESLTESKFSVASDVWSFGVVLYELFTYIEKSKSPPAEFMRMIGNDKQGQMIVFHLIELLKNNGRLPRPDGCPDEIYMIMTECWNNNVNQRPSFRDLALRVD
T2 sequence (O60674 whole entry, change not shown, the tested form may be a part): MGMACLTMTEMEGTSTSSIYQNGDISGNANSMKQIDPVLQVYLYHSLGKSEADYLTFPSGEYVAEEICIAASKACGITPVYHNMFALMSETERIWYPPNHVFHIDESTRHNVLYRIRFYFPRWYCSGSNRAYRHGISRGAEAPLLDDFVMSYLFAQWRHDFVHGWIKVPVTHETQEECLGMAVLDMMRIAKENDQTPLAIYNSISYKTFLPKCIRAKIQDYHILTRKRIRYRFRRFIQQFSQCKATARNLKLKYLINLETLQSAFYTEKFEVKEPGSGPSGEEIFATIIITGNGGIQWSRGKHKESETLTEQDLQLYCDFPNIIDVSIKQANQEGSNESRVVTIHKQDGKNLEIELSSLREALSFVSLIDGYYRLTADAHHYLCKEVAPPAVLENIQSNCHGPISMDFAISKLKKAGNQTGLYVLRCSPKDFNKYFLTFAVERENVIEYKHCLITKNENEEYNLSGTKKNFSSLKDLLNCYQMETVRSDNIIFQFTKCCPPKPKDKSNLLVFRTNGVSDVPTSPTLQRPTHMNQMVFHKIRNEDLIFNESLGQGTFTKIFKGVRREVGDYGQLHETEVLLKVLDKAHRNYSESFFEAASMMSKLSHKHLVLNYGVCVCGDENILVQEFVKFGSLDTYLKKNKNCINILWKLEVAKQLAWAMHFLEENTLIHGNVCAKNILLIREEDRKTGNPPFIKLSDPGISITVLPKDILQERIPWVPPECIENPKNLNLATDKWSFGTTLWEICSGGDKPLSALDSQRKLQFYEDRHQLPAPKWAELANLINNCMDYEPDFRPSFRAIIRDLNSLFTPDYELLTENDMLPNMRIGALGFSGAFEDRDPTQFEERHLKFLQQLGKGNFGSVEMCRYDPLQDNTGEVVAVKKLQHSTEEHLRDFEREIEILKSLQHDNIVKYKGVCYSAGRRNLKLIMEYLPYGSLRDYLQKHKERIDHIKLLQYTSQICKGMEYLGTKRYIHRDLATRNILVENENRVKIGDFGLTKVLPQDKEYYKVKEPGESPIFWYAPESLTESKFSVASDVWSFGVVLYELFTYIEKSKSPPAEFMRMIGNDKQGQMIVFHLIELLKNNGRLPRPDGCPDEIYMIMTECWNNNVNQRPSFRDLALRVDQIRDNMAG

Regarding `Cc1cnc(Nc2ccc(N3CCOCC3)cc2)nc1Sc1ccc(C#N)cc1` [Compound 136, 4-(5-methyl-2-(4-morpholinophenylao)pyrimidin-4-ylthio)benzonitrile], the IC50 in experiment [1] was greater than 1 µM; in experiment [3], greater than 20 µM. Further, the GI50 in experiment [2] was greater than 20 µM.
Regarding `CCOC(=O)c1nccn1Cc1ccc(Sc2ccnc(Nc3ccc(N4CCOCC4)cc3)n2)cc1` [Compound 148, ethyl 1-(4-(2-(4-morpholinophenylao)pyrimidin-4-ylthio)benzyl)-1H-imidazole-2-carboxylate], the IC50 in experiment [1] is greater than 1 µM; in experiment [3], less than 20 µM. The GI50 in experiment [2] is less than 20 µM.
In the case of `NC(=O)c1nccn1Cc1ccc(Sc2ccnc(Nc3ccc(N4CCOCC4)cc3)n2)cc1` [Compound 149, 1-(4-(2-(4-morpholinophenylao)pyrimidin-4-ylthio)benzyl)-1H-imidazole-2-carboxamide], the IC50 was greater than 1 µM in experiment [1] and less than 20 µM in experiment [3]. Further, the GI50 in experiment [2] is less than 5 µM.
On to `N#Cc1nccc(Sc2ccc(Sc3ccnc(Nc4ccc(N5CCOCC5)cc4)n3)cc2)n1` [Compound 154, 4-(4-(2-(4-morpholinophenylao)pyrimidin-4-ylthio)phenylthio)pyrimidine-2-carbonitrile], for which the IC50 was greater than 1 µM in experiment [1] and less than 5 µM in experiment [3]. Besides, the GI50 in experiment [2] is less than 5 µM.
Turning to `C=CC(=O)Nc1ccc(Sc2ccnc(Nc3ccc(N4CCOCC4)cc3)n2)c(Cl)c1C` [Compound 161, N-(3-chloro-2-methyl-4-(2-(4-morpholinophenylao)pyrimidin-4-ylthio)phenyl)acrylamide], the IC50 in experiment [1] was greater than 1 µM; in experiment [3], less than 5 µM. For the same molecule, the GI50 in experiment [2] is greater than 20 µM.
Take `C=CC(=O)Nc1cc(C)c(Sc2nc(Nc3ccc(N4CCOCC4)cc3)ncc2C)c(C)c1` [Compound 164, N-(3,5-dimethyl-4-(5-methyl-2-(4-morpholinophenylao)pyrimidin-4-ylthio)phenyl)acrylamide]: the figures for the IC50 in experiment [1] and in experiment [3] were greater than 1 µM and less than 1 µM, respectively. Moreover, the GI50 in experiment [2] was less than 20 µM.
As to `Cc1cnc(Nc2ccc(N3CCOCC3)cc2)nc1Sc1ccc2c(c1)CCCN2` [Compound 166, 5-methyl-N-(4-morpholinophenyl)-4-(1,2,3,4-tetrahydroquinolin-6-ylthio)pyrimidin-2-ae], the figures for the IC50 in experiment [1] and in experiment [3] were greater than 1 µM and less than 20 µM, respectively. For the same molecule, the GI50 in experiment [2] was less than 5 µM.
For `C=CC(=O)Nc1ccc(Sc2nc(Nc3ccc(N4CCOCC4)cc3)ncc2C)c(Cl)c1C` [Compound 171, N-(3-chloro-2-methyl-4-(5-methyl-2-(4-morpholinophenylao)pyrimidin-4-ylthio)phenyl)acrylamide] the same measures were greater than 1 µM, less than 20 µM and greater than 20 µM.
For the molecule `CSc1nc(Nc2ccc(N3CCOCC3)cc2)ncc1C` [Compound 176, 5-methyl-4-(methylthio)-N-(4-morpholinophenyl)pyrimidin-2-ae], the IC50 in experiment [1] is less than 1 µM; in experiment [3] it was less than 5 µM. Further, the GI50 in experiment [2] was less than 5 µM.
On to `Cc1cnc(Nc2ccc(N3CCOCC3)cc2)nc1Sc1ccc(NC(=O)COCC(=O)O)cc1` [Compound 188, 2-(2-(4-(5-methyl-2-(4-morpholinophenylao)pyrimidin-4-ylthio)phenylao)-2-oxoethoxy)acetic acid], for which the results for the IC50 in experiment [1] and in experiment [3] were less than 0.5 µM and greater than 20 µM, respectively. In addition, in experiment [2], the GI50 is greater than 20 µM.
For the molecule `COC(=O)COCC(=O)Nc1ccc(Sc2nc(Nc3ccc(N4CCOCC4)cc3)ncc2C)cc1` [Compound 189, methyl 2-(2-(4-(5-methyl-2-(4-morpholinophenylao)pyrimidin-4-ylthio)phenylao)-2-oxoethoxy)acetate], the IC50 in experiment [1] was greater than 1 µM; in experiment [3], greater than 20 µM. For the same molecule, the GI50 in experiment [2] is less than 20 µM.
With `C=CC(=O)Nc1ccc(Sc2ccnc(Nc3ccccc3O)n2)cc1` [Compound 279, N-(4-(2-(2-hydroxyphenylao)pyrimidin-4-ylthio)phenyl)acrylamide], the IC50 in experiment [1] is greater than 1 µM; in experiment [3] it was less than 20 µM. Moreover, the GI50 in experiment [2] was less than 20 µM.
In the case of `C=CC(=O)Nc1ccc(Sc2nc(Nc3cccc(O)c3)ncc2C)cc1` [Compound 281, N-(4-(2-(3-hydroxyphenylao)-5-methylpyrimidin-4-ylthio)phenyl)acrylamide], the IC50 in experiment [1] was greater than 1 µM; in experiment [3] it was less than 1 µM. Also, in experiment [2], the GI50 was less than 20 µM.
Regarding `C=CC(=O)Nc1ccc(Sc2nc(Nc3ccc(O)cc3)ncc2C)cc1` [Compound 282, N-(4-(2-(4-hydroxyphenylao)-5-methylpyrimidin-4-ylthio)phenyl)acrylamide], the IC50 in experiment [1] is greater than 1 µM; in experiment [3] it was less than 1 µM. Further, the GI50 in experiment [2] is less than 20 µM.
On to `C=CC(=O)Nc1ccc(Sc2nc(Nc3ccc(OC)c(O)c3)ncc2C)cc1` [Compound 283, N-(4-(2-(3-hydroxy-4-methoxyphenylao)-5-methylpyrimidin-4-ylthio)phenyl)acrylamide], for which the IC50 was greater than 1 µM in experiment [1] and less than 1 µM in experiment [3]. Further, the GI50 in experiment [2] is less than 20 µM.
For `C=CC(=O)Nc1ccc(Sc2nc(Nc3ccc4c(c3)OCO4)ncc2C)cc1` [Compound 284, N-(4-(2-(benzo[d][1,3]dioxol-5-ylao)-5-methylpyrimidin-4-ylthio)phenyl)acrylamide] the same measures were greater than 1 µM, less than 1 µM and less than 20 µM.
As for `C=CC(=O)Nc1ccc(Sc2nc(Nc3cccc(OC(F)(F)F)c3)ncc2C)cc1` [Compound 289, N-(4-(5-methyl-2-(3-(trifluoromethoxy)phenylao)pyrimidin-4-ylthio)phenyl)acrylamide], the figures for the IC50 in experiment [1] and in experiment [3] were greater than 1 µM and less than 1 µM, respectively. Further, in experiment [2], the GI50 is less than 20 µM.
As for `C=CC(=O)Nc1ccc(Sc2nc(Nc3ccc(N4CCC(C(=O)OCC)CC4)cc3)ncc2C)cc1` [Compound 292, ethyl 1-(4-(4-(4-acrylamidophenylthio)-5-methylpyrimidin-2-ylao)phenyl)piperidine-4-carboxylate], the IC50 in experiment [1] is greater than 1 µM; in experiment [3] it was less than 5 µM. The GI50 in experiment [2] was greater than 20 µM.
`C=CC(=O)Nc1ccc(Sc2nc(Nc3ccc(CNS(C)(=O)=O)cc3)ncc2C)cc1` [Compound 294, N-(4-(5-methyl-2-(4-(methylsulfonamidomethyl)phenylao)pyrimidin-4-ylthio)phenyl)acrylamide]: the IC50 in experiment [1] is greater than 1 µM; in experiment [3], less than 1 µM. Also, in experiment [2], the GI50 was greater than 20 µM.
With `C=CC(=O)Nc1ccc(Sc2nc(Nc3ccc(N4CCS(=O)(=O)CC4)cc3)ncc2C)cc1` [Compound 298, N-{4-[(2-{[4-(1,1-dioxo-1λ^6,4-thiomorpholin-4-yl)phenyl]ao}-5-methylpyrimidin-4-yl)sulfanyl]phenyl}prop-2-enamide], the IC50 is greater than 1 µM in experiment [1] and less than 1 µM in experiment [3]. Besides, the GI50 in experiment [2] is less than 20 µM.
For `C=CC(=O)Nc1ccc(Sc2nc(Nc3cccc(OCCCO)c3)ncc2C)cc1` [Compound 301, N-(4-(2-(3-(3-hydroxypropoxy)phenylao)-5-methylpyrimidin-4-ylthio)phenyl)acrylamide] the same measures were greater than 1 µM, less than 1 µM and less than 20 µM.
For `C=CC(=O)Nc1ccc(Sc2nc(Nc3ccc(N4CCOCC4)cc3)ncc2-c2ccccc2)cc1` [Compound 307, N-(4-(2-(4-morpholinophenylao)-5-phenylpyrimidin-4-ylthio)phenyl)acrylamide] the same measures were greater than 1 µM, greater than 20 µM and greater than 20 µM.
Consider `Nc1ccc(Sc2nc(Nc3ccc(N4CCOCC4)cc3)ncc2I)cc1` [Compound 309, 4-(4-aophenylthio)-5-iodo-N-(4-morpholinophenyl)pyrimidin-2-ae], for which the IC50 is greater than 1 µM in experiment [1] and less than 1 µM in experiment [3]. Besides, the GI50 in experiment [2] is less than 5 µM.
For the molecule `C=CC(=O)Nc1ccc(Sc2nc(Nc3ccc(N4CCOCC4)cc3)ncc2I)cc1` [Compound 313, N-(4-(5-iodo-2-(4-morpholinophenylao)pyrimidin-4-ylthio)phenyl)acrylamide], the IC50 in experiment [1] was greater than 1 µM; in experiment [3], less than 5 µM. Moreover, the GI50 in experiment [2] was greater than 20 µM.
Consider `C=CC(=O)Nc1ccc(Sc2nc(Nc3ccc(N4CCOCC4)cc3)ncc2Cl)cc1` [Compound 315, N-(4-(5-chloro-2-(4-morpholinophenylao)pyrimidin-4-ylthio)phenyl)acrylmide], for which the IC50 was greater than 1 µM in experiment [1] and less than 1 µM in experiment [3]. The GI50 in experiment [2] is greater than 20 µM.
With `Nc1ccc(Sc2nc(Nc3ccc(N4CCOCC4)cc3)ncc2Cl)cc1` [Compound 318, 4-(4-aophenylthio)-5-chloro-N-(4-morpholinophenyl)pyrimidin-2-ae], the IC50 is greater than 1 µM in experiment [1] and less than 20 µM in experiment [3]. The GI50 in experiment [2] was greater than 20 µM.
For `C=C(CN1CCOCC1)C(=O)Nc1cccc(Sc2ccnc(Nc3ccc(N4CCOCC4)cc3)n2)c1` [Compound 328, 2-(morpholinomethyl)-N-(3-(2-(4-morpholinophenylao)pyrimidin-4-ylthio)phenyl)acrylamide] the same measures were greater than 1 µM, less than 5 µM and less than 1 µM.
